Experimental data as given in PubChem BioAssay AID256 (DTP/NCI, 2004).
Toxic doses and inconclusive results are not listed.

Test system: CD2F1 mice, L1210 leukemia ip, survival T/C
Test: NCI In Vivo Anticancer Drug Screen. Data for tumor model L1210 Leukemia (intraperitoneal) in CD2F1 (CDF1) mice
Settings: higher = longer survival
Summary of the method: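 Vehicle-treated tumor-bearing mice served as controls (C) for compound-treated mice (T). Reported figure is T divided by C.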

[1] = endpoint: mean survival time, dose: 100.0 mg/kg/injection, schedule: Q01DX009 (ip), vehicle: other
[2] = endpoint: mean survival time, dose: 200.0 mg/kg/injection, schedule: Q01DX009 (ip), vehicle: other
[3] = endpoint: mean survival time, dose: 400.0 mg/kg/injection, schedule: Q01DX009 (ip), vehicle: other
[4] = endpoint: mean survival time, dose: 50.0 mg/kg/injection, schedule: Q01DX009 (ip), vehicle: saline with Tween-80
[5] = endpoint: mean survival time, dose: 100.0 mg/kg/injection, schedule: Q01DX009 (ip), vehicle: saline with Tween-80
[6] = endpoint: mean survival time, dose: 200.0 mg/kg/injection, schedule: Q01DX009 (ip), vehicle: saline with Tween-80
[7] = endpoint: mean survival time, dose: 100.0 mg/kg/injection, schedule: Q01DX001 (ip), vehicle: saline with Tween-80
[8] = endpoint: mean survival time, dose: 100.0 mg/kg/injection, schedule: Q04DX003 (ip), vehicle: saline with Tween-80
[9] = endpoint: mean survival time, dose: 200.0 mg/kg/injection, schedule: Q01DX001 (ip), vehicle: saline with Tween-80
[10] = endpoint: mean survival time, dose: 200.0 mg/kg/injection, schedule: Q04DX003 (ip), vehicle: saline with Tween-80
[11] = endpoint: mean survival time, dose: 400.0 mg/kg/injection, schedule: Q01DX001 (ip), vehicle: saline with Tween-80
[12] = endpoint: mean survival time, dose: 400.0 mg/kg/injection, schedule: Q04DX003 (ip), vehicle: saline with Tween-80
[13] = endpoint: mean survival time, dose: 400.0 mg/kg/injection, schedule: Q01DX009 (ip), vehicle: saline with Tween-80

With `COc1cc(/C(C)=N\O)ccc1O` the T/C (endpoint: mean survival time, dose: 100.0 mg/kg/injection, schedule: Q01DX001 (ip), vehicle: other) was 102 % of control, the T/C [1] was 107 % of control and the T/C (endpoint: mean survival time, dose: 200.0 mg/kg/injection, schedule: Q01DX001 (ip), vehicle: other) was 108 % of control. The T/C [2] was 102 % of control, the T/C (endpoint: mean survival time, dose: 400.0 mg/kg/injection, schedule: Q01DX001 (ip), vehicle: other) was 98 % of control and the T/C [3] was 90 % of control.
With `CCN(CC)Cc1ccc(Nc2cc(C)nc(/N=C(\N)Nc3ccc(Cl)c(Cl)c3)n2)cc1` the T/C (endpoint: mean survival time, dose: 12.5 mg/kg/injection, schedule: Q04DX003 (ip), vehicle: saline with Tween-80) was 98 % of control and the T/C (endpoint: mean survival time, dose: 25.0 mg/kg/injection, schedule: Q04DX003 (ip), vehicle: saline with Tween-80) was 95 % of control.
For `Cc1cc(Cl)ccc1NC(=O)OCCOc1ccc([N+](=O)[O-])cc1`, the T/C [4] was 96 % of control, the T/C [5] was 96 % of control and the T/C [6] was 100 % of control.
In the case of `Nc1cccc2c1C(=O)c1ccccc1C2=O`, the T/C (endpoint: mean survival time, dose: 100.0 mg/kg/injection, schedule: Q04DX003 (ip), vehicle: other) was 97 % of control, the T/C (endpoint: mean survival time, dose: 200.0 mg/kg/injection, schedule: Q04DX003 (ip), vehicle: other) was 92 % of control and the T/C (endpoint: mean survival time, dose: 400.0 mg/kg/injection, schedule: Q04DX003 (ip), vehicle: other) was 95 % of control.
`Nc1nc(N)c2c(n1)CCCC2` was tested, and the T/C (endpoint: mean survival time, dose: 12.5 mg/kg/injection, schedule: Q01DX009 (ip), vehicle: saline with Tween-80) was 93 % of control and the T/C (endpoint: mean survival time, dose: 25.0 mg/kg/injection, schedule: Q01DX009 (ip), vehicle: saline with Tween-80) was 88 % of control.
In the case of `C(=N\N=C\c1ccccc1)/c1ccccc1`, the T/C [7] was 100 % of control, the T/C [8] was 103 % of control and the T/C [9] was 100 % of control. The T/C [10] was 91 % of control, the T/C [11] was 97 % of control and the T/C [12] was 96 % of control.
For `O=C1CCC(OC(=O)c2ccccc2)CCN1` (stereo not given), the T/C [5] was 87 % of control, the T/C [6] was 98 % of control and the T/C [13] was 90 % of control.
In the case of `COc1ccc(-c2nc(N)ncc2C)cc1`, the T/C (endpoint: mean survival time, dose: 100.0 mg/kg/injection, schedule: Q04DX002 (ip), vehicle: other) was 96 % of control, the T/C (endpoint: mean survival time, dose: 200.0 mg/kg/injection, schedule: Q04DX002 (ip), vehicle: other) was 96 % of control and the T/C (endpoint: mean survival time, dose: 400.0 mg/kg/injection, schedule: Q04DX002 (ip), vehicle: other) was 101 % of control.
With `CCCCC(C#N)(CCCC)C(=O)OCC` the T/C [4] was 101 % of control, the T/C [5] was 91 % of control and the T/C [6] was 97 % of control.
`CN(C)c1ccc(C(O)C(N)=O)cc1` (stereo not given) was tested, and the T/C (endpoint: mean survival time, dose: 6.25 mg/kg/injection, schedule: Q01DX009 (ip), vehicle: saline) was 94 % of control, the T/C (endpoint: mean survival time, dose: 6.25 mg/kg/injection, schedule: Q04DX003 (ip), vehicle: saline) was 102 % of control and the T/C (endpoint: mean survival time, dose: 12.5 mg/kg/injection, schedule: Q01DX009 (ip), vehicle: saline) was 94 % of control. The T/C (endpoint: mean survival time, dose: 12.5 mg/kg/injection, schedule: Q04DX003 (ip), vehicle: saline) was 95 % of control, the T/C (endpoint: mean survival time, dose: 25.0 mg/kg/injection, schedule: Q01DX009 (ip), vehicle: saline) was 93 % of control and the T/C (endpoint: mean survival time, dose: 25.0 mg/kg/injection, schedule: Q04DX003 (ip), vehicle: saline) was 106 % of control.
In the case of `CCN1CCS(=O)(=O)C1=O`, the T/C (endpoint: mean survival time, dose: 75.0 mg/kg/injection, schedule: Q01DX001 (ip), vehicle: other) was 108 % of control and the T/C (endpoint: mean survival time, dose: 150.0 mg/kg/injection, schedule: Q01DX001 (ip), vehicle: other) was 115 % of control.
With `COC(=O)COc1cccc(NC(=O)CC(=O)c2cccc([N+](=O)[O-])c2)c1` the T/C (endpoint: mean survival time, dose: 100.0 mg/kg/injection, schedule: Q01DX009 (ip), vehicle: Klucel (hydroxypropylcellulose) (HPC)) was 98 % of control, the T/C [8] was 101 % of control and the T/C (endpoint: mean survival time, dose: 200.0 mg/kg/injection, schedule: Q01DX009 (ip), vehicle: Klucel (hydroxypropylcellulose) (HPC)) was 97 % of control. The T/C [10] was 98 % of control, the T/C (endpoint: mean survival time, dose: 400.0 mg/kg/injection, schedule: Q01DX009 (ip), vehicle: Klucel (hydroxypropylcellulose) (HPC)) was 96 % of control and the T/C [12] was 93 % of control.
For `CCCCOC(=O)c1cccc([N+](=O)[O-])c1`, the T/C [4] was 93 % of control, the T/C [5] was 104 % of control and the T/C [6] was 105 % of control.
In the case of `CCCOc1ccc(C(N)=S)c2ccccc12`, the T/C (endpoint: mean survival time, dose: 100.0 mg/kg/injection, schedule: Q04DX002 (ip), vehicle: Klucel (hydroxypropylcellulose) (HPC)) was 105 % of control, the T/C (endpoint: mean survival time, dose: 200.0 mg/kg/injection, schedule: Q04DX002 (ip), vehicle: Klucel (hydroxypropylcellulose) (HPC)) was 102 % of control and the T/C (endpoint: mean survival time, dose: 400.0 mg/kg/injection, schedule: Q04DX002 (ip), vehicle: Klucel (hydroxypropylcellulose) (HPC)) was 105 % of control.
`NC(=O)C1C=CN(Cc2ccccc2)C=C1` was tested, and the T/C (endpoint: median survival time, dose: 30.0 mg/kg/injection, schedule: Q01DX005 (ip), vehicle: saline with Tween-80) was 100 % of control, the T/C (endpoint: median survival time, dose: 60.0 mg/kg/injection, schedule: Q01DX005 (ip), vehicle: saline with Tween-80) was 107 % of control and the T/C (endpoint: median survival time, dose: 120.0 mg/kg/injection, schedule: Q01DX005 (ip), vehicle: saline with Tween-80) was 111 % of control.
With `Cc1cc2n[se]nc2cc1C` the T/C (endpoint: median survival time, dose: 3.12 mg/kg/injection, schedule: Q01DX009 (ip), vehicle: Klucel (hydroxypropylcellulose) (HPC)) was 94 % of control, the T/C (endpoint: median survival time, dose: 6.25 mg/kg/injection, schedule: Q01DX009 (ip), vehicle: Klucel (hydroxypropylcellulose) (HPC)) was 95 % of control and the T/C (endpoint: median survival time, dose: 12.5 mg/kg/injection, schedule: Q01DX009 (ip), vehicle: Klucel (hydroxypropylcellulose) (HPC)) was 98 % of control. The T/C (endpoint: median survival time, dose: 25.0 mg/kg/injection, schedule: Q01DX009 (ip), vehicle: Klucel (hydroxypropylcellulose) (HPC)) was 101 % of control.
In the case of `OC(c1ccccc1)(c1ccccc1)c1ccccc1Cl`, the T/C [5] was 98 % of control, the T/C [6] was 101 % of control and the T/C [13] was 102 % of control.
For `O=C(O)c1cnc2cc(Cl)ccc2n1`, the T/C [4] was 103 % of control, the T/C [5] was 103 % of control and the T/C [8] was 98 % of control. The T/C [10] was 100 % of control.
For `O=C(O)C(C(=O)O)=C(C(=O)c1ccccc1)c1ccccc1`, the T/C [1] was 95 % of control, the T/C [2] was 100 % of control and the T/C [3] was 95 % of control.
For `CCOC(=O)NC1CCC1NC(=O)OCC` (stereo not given), the T/C [8] was 95 % of control, the T/C [10] was 106 % of control and the T/C [12] was 107 % of control.
In the case of `NS(=O)(=O)c1cc([N+](=O)[O-])ccc1Cl`, the T/C [5] was 91 % of control and the T/C [6] was 98 % of control.
With `Nc1cncc([N+](=O)[O-])c1N` the T/C [7] was 98 % of control, the T/C [9] was 101 % of control and the T/C [11] was 101 % of control.
In the case of `CCOC(CNCc1ccc(OC)cc1)OCC`, the T/C (endpoint: mean survival time, dose: 100.0 mg/kg/injection, schedule: Q01DX001 (ip), vehicle: saline) was 104 % of control and the T/C (endpoint: mean survival time, dose: 200.0 mg/kg/injection, schedule: Q01DX001 (ip), vehicle: saline) was 111 % of control.
`C[n+]1c(/C=C\c2cccc([N+](=O)[O-])c2)ccc2ccccc21` was tested, and the T/C [7] was 106 % of control, the T/C [5] was 87 % of control and the T/C [9] was 95 % of control. For the same compound, the T/C [6] was 91 % of control, the T/C [11] was 107 % of control and the T/C [13] was 95 % of control.
With `C=CCCCCCCCCC(=O)N1CCOCC1` the T/C (endpoint: mean survival time, dose: 100.0 mg/kg/injection, schedule: Q04DX002 (ip), vehicle: saline) was 97 % of control.
In the case of `Nc1nc(CCCCc2ccccc2)c(N=Nc2ccc(Cl)cc2)c(=O)[nH]1`, the T/C [5] was 90 % of control, the T/C [6] was 90 % of control and the T/C [13] was 87 % of control.
In the case of `O=C(NCCCCCCCCNC(=O)N1CC1)N1CC1`, the T/C (endpoint: mean survival time, dose: 1.5 mg/kg/injection, schedule: Q01DX001 (ip), vehicle: carboxymethylcellulose (CMC)) was 117 % of control, the T/C (endpoint: mean survival time, dose: 2.25 mg/kg/injection, schedule: Q01DX001 (ip), vehicle: carboxymethylcellulose (CMC)) was 111 % of control and the T/C (endpoint: mean survival time, dose: 3.3 mg/kg/injection, schedule: Q01DX001 (ip), vehicle: carboxymethylcellulose (CMC)) was 121 % of control. For the same compound, the T/C (endpoint: mean survival time, dose: 5.0 mg/kg/injection, schedule: Q01DX001 (ip), vehicle: carboxymethylcellulose (CMC)) was 122 % of control, the T/C (endpoint: mean survival time, dose: 7.5 mg/kg/injection, schedule: Q01DX001 (ip), vehicle: carboxymethylcellulose (CMC)) was 152 % of control and the T/C (endpoint: mean survival time, dose: 11.0 mg/kg/injection, schedule: Q01DX001 (ip), vehicle: carboxymethylcellulose (CMC)) was 183 % of control.
`O=C(CCC(=O)Nc1ccc(S(=O)(=O)NCCO)cc1)Nc1ccc(S(=O)(=O)NCCO)cc1` was tested, and the T/C (endpoint: mean survival time, dose: 12.5 mg/kg/injection, schedule: Q01DX001 (ip), vehicle: saline with Tween-80) was 105 % of control, the T/C (endpoint: mean survival time, dose: 12.5 mg/kg/injection, schedule: Q04DX002 (ip), vehicle: saline with Tween-80) was 96 % of control and the T/C (endpoint: mean survival time, dose: 25.0 mg/kg/injection, schedule: Q01DX001 (ip), vehicle: saline with Tween-80) was 107 % of control. The T/C (endpoint: mean survival time, dose: 25.0 mg/kg/injection, schedule: Q04DX002 (ip), vehicle: saline with Tween-80) was 96 % of control, the T/C (endpoint: mean survival time, dose: 50.0 mg/kg/injection, schedule: Q01DX001 (ip), vehicle: saline with Tween-80) was 97 % of control and the T/C (endpoint: mean survival time, dose: 50.0 mg/kg/injection, schedule: Q04DX002 (ip), vehicle: saline with Tween-80) was 86 % of control.
